Laboratory results from US7034035B2, “Fungicidal mono-, bi-, and tri-cycloheteroalkyl amides and their compositions, methods of use and preparation” (priority 1999, dated 2006).
Read-outs that look alike come from different tables or passages of the source.

Experiments:
[1] = test system: Puccinia recondita—PUCCRT; assay: Brown Rust of Wheat, in vivo whole plant, 24 Hour Protectant; conditions: inoculated after 24 hours; for pest or weed control at 100 ppm: Puccinia, read-out: PUCCRT in vivo 1 Day Protectant
[2] = test system: Rhizoctonia solani (RHIZSO); assay: microbe, parasite or virus in culture; type: cell-based
Ustilago maydis (USTIMA) = assay: microbe, parasite or virus in culture; type: cell-based
Septoria tritici—SEPTTR = assay: Leaf Blotch of Wheat, in vivo whole plant, 24 Hour Protectant; conditions: inoculated after 24 hours; for pest or weed control at 100 ppm: Zymoseptoria tritici, read-out: SEPTTR in vivo 1 Day Protectant
Erysiphe graminis—ERYSGT = assay: Powdery Mildew of Wheat, in vivo whole plant, 24 Hour Protectant; conditions: for pest or weed control at 100 ppm: Erysiphe, in Triticum aestivum, 24 h, read-out: ERYSGT in vivo 1 Day Protectant; for ERYSGT in vivo 1 Day Protectant: inoculated after 24 hours
[3] = test system: Leptosphaeria nodorum—LEPTNO; assay: Glume Blotch of Wheat, in vivo whole plant, 24 Hour Protectant; conditions: for pest or weed control at 100 ppm: Leptosphaeria, 24 h, read-out: LEPTNO in vivo 1 Day Protectant
[4] = test system: Phytophthora infestans—PHYTIN; assay: whole plant or invertebrate; type: in vivo; conditions: for PHYTIN in vivo 1 Day Protectant: tomato plants sprayed at 100 ppm, inoculated after 24 hours, control vs untreated plants; for pest or weed control at 100 ppm: Phytophthora, in Solanum lycopersicum, 24 h, read-out: PHYTIN in vivo 1 Day Protectant
[5] = wheat (cultivar Yuma), sprayed at 100 ppm, control of fungal infection vs untreated plants
[6] = wheat plants sprayed at 100 ppm, control vs untreated plants
[7] = wheat plants sprayed at 100 ppm, inoculated after 24 hours, control vs untreated plants
[8] = wheat (cultivar Yuma), sprayed at 100 ppm, inoculated after 24 hours, control of fungal infection vs untreated plants

SMILES	pest or weed control at 100 ppm [1, 5] [%]	RHIZSO in vitro Growth Inhibition [2]	USTIMA in vitro Growth Inhibition (Ustilago maydis (USTIMA))	pest or weed control at 100 ppm (Septoria tritici—SEPTTR; [5]) [%]	pest or weed control at 100 ppm [3, 8] [%]	other results
COc1ccnc(C(=O)N[C@H]2CO[C@@H](C(C)Cc3ccc(C(C)(C)C)cc3)OC2)c1O (stereo partly drawn) [Compound 317]	75 to 100	− (key: +: at least 80% growth inhibition; −: less than 80% growth inhibition)	− (key: +: at least 80% growth inhibition; −: less than 80% growth inhibition)	–	–	–
COc1ccnc(C(=O)N[C@H]2CO[C@H](C(C)Cc3ccc(C(C)(C)C)cc3)OC2)c1O (stereo partly drawn) [Compound 316]	75 to 100	− (key: +: at least 80% growth inhibition; −: less than 80% growth inhibition)	+ (key: +: at least 80% growth inhibition; −: less than 80% growth inhibition)	–	–	–
COc1ccnc(C(=O)NC2C3CC4C(C3Cl)C42)c1O (stereo not drawn) [Compound 304]	–	+ (key: +: at least 80% growth inhibition; −: less than 80% growth inhibition)	− (key: +: at least 80% growth inhibition; −: less than 80% growth inhibition)	75 to 100	–	–
COc1ccnc(C(=O)NC(COC(=O)CCc2ccccc2)C(=O)OC(C)COC(=O)C(C)C)c1O (stereo not drawn) [Compound 359]	75 to 100	–	–	75 to 100	–	–
O=C(Nc1cccc(Oc2cccc(C(F)(F)F)c2)c1)c1nc(Br)ccc1O [Compound 496]	–	–	–	–	–	SEPTTR in vivo 1 Day Protectant (Septoria tritici—SEPTTR; [6]): + (25-74% control of fungal infection); PUCCRT in vivo 1 Day Protectant [1, 6]: + (25-74% control of fungal infection); pest or weed control at 100 ppm (Erysiphe graminis—ERYSGT): < 25%; LEPTNO in vivo 1 Day Protectant [3, 7]: − (<25% control of fungal infection); PHYTIN in vivo 1 Day Protectant [4]: − (<25% control of fungal infection)
COc1ccnc(C(=O)N[C@@H](Cc2ccc(OCc3ccccc3)cc2)C(=O)OCc2ccccc2)c1O [Compound 339]	75 to 100	− (key: +: at least 80% growth inhibition; −: less than 80% growth inhibition)	− (key: +: at least 80% growth inhibition; −: less than 80% growth inhibition)	75 to 100	75 to 100	–
CCC(C)C(=O)O[C@H]1[C@H](C)OC(=O)[C@@H](NC(=O)c2nccc(OC)c2O)COC(=O)[C@@H]1Cc1ccccc1 (stereo partly drawn) [Compound 389]	25 to 74	–	–	25 to 74	75 to 100	pest or weed control at 100 ppm (Erysiphe graminis—ERYSGT): < 25%; pest or weed control at 100 ppm [4]: < 25%
CCC1(C)CC(NC(=O)c2nccc(OC)c2O)CC(C)(C)C1 (stereo not drawn) [Compound 251]	75 to 100	− (key: +: at least 80% growth inhibition; −: less than 80% growth inhibition)	− (key: +: at least 80% growth inhibition; −: less than 80% growth inhibition)	75 to 100	75 to 100	–
COc1ccnc(C(=O)N[C@H]2COC(=O)[C@H](CC3CCCC3)[C@@H](OC(=O)C(C)C)[C@H](C)OC2=O)c1O [Compound 402]	–	–	–	–	75 to 100	pest or weed control at 100 ppm (Erysiphe graminis—ERYSGT): 75 to 100%
COc1ccnc(C(=O)N[C@H]2COC(=O)[C@H](Cc3ccccc3)[C@@H](OC(=O)CC(C)C)[C@H](C)OC2=O)c1O [Compound 390]	25 to 74	–	–	25 to 74	75 to 100	pest or weed control at 100 ppm (Erysiphe graminis—ERYSGT): < 25%; pest or weed control at 100 ppm [4]: < 25%
COc1ccnc(C(=O)NC2CCCC(Sc3ccc(C(F)(F)F)cn3)C2)c1O (stereo not drawn) [Compound 274]	75 to 100	+ (key: +: at least 80% growth inhibition; −: less than 80% growth inhibition)	− (key: +: at least 80% growth inhibition; −: less than 80% growth inhibition)	–	75 to 100	–
O=C(Nc1cccc(Oc2cccc(C(F)(F)F)c2)c1)c1nc(Br)ccc1O [Compound 497]	–	–	–	–	–	SEPTTR in vivo 1 Day Protectant (Septoria tritici—SEPTTR; [6]): + (25-74% control of fungal infection); PUCCRT in vivo 1 Day Protectant [1, 6]: + (25-74% control of fungal infection); ERYSGT in vivo 1 Day Protectant (Erysiphe graminis—ERYSGT; [6]): − (<25% control of fungal infection); LEPTNO in vivo 1 Day Protectant [3, 7]: + (25-74% control of fungal infection); PHYTIN in vivo 1 Day Protectant [4]: − (<25% control of fungal infection)
CCCC[C@H]1C(=O)O[C@H](C)C(NC(=O)c2cccc(NC(=O)c3nccc(OC)c3O)c2O)C(=O)O[C@@H](C)[C@@H]1OC(=O)CC(C)C (stereo partly drawn) [Compound 473]	–	–	–	–	–	SEPTTR in vivo 1 Day Protectant (Septoria tritici—SEPTTR; [6]): + (25-74% control of fungal infection); PUCCRT in vivo 1 Day Protectant [1, 6]: + (25-74% control of fungal infection); ERYSGT in vivo 1 Day Protectant (Erysiphe graminis—ERYSGT; [6]): − (<25% control of fungal infection); pest or weed control at 100 ppm [3]: 75 to 100%
COc1ccnc(C(=O)N[C@H]2CO[C@](C)(C(C)CC3=C(C)CCCC3(C)C)OC2)c1O (stereo partly drawn) [Compound 319]	75 to 100	− (key: +: at least 80% growth inhibition; −: less than 80% growth inhibition)	− (key: +: at least 80% growth inhibition; −: less than 80% growth inhibition)	–	–	–
COc1ccnc(C(=O)NC2CC(C)(C)/C=C\CC(C)(C)C2)c1O (stereo not drawn) [Compound 283]	–	− (key: +: at least 80% growth inhibition; −: less than 80% growth inhibition)	− (key: +: at least 80% growth inhibition; −: less than 80% growth inhibition)	75 to 100	–	–
COc1ccnc(C(=O)NC2CC(C)(C)CCCC2C)c1O (stereo not drawn) [Compound 277]	–	− (key: +: at least 80% growth inhibition; −: less than 80% growth inhibition)	− (key: +: at least 80% growth inhibition; −: less than 80% growth inhibition)	75 to 100	–	–
COc1ccnc(C(=O)NCC#Cc2ccccc2)c1O [Compound 240]	–	− (key: +: at least 80% growth inhibition; −: less than 80% growth inhibition)	− (key: +: at least 80% growth inhibition; −: less than 80% growth inhibition)	75 to 100	–	–
CC(C)C(=O)O[C@H]1[C@H](C)OC(=O)[C@@H](NC(=O)c2nsnc2O)COC(=O)[C@@H]1Cc1ccccc1 [Compound 553]	–	–	–	–	–	pest or weed control at 100 ppm [3, 7]: 75 to 100%; pest or weed control at 100 ppm [4]: 75 to 100%
COc1ccnc(C(=O)NC2CC(C)(C)C(Oc3cc(C(F)(F)F)cc(C(F)(F)F)n3)C(C)(C)C2)c1O (stereo not drawn) [Compound 272]	–	− (key: +: at least 80% growth inhibition; −: less than 80% growth inhibition)	− (key: +: at least 80% growth inhibition; −: less than 80% growth inhibition)	75 to 100	–	–
O=C(Nc1ccc(Cl)cc1)c1ncccc1O [Compound 213]	75 to 100	− (key: +: at least 80% growth inhibition; −: less than 80% growth inhibition)	− (key: +: at least 80% growth inhibition; −: less than 80% growth inhibition)	–	–	–
COc1ccnc(C(=O)N[C@H]2CC3CC2[C@@H](COCc2cccc(C(F)(F)F)c2)C3)c1O (stereo partly drawn) [Compound 295]	–	+ (key: +: at least 80% growth inhibition; −: less than 80% growth inhibition)	− (key: +: at least 80% growth inhibition; −: less than 80% growth inhibition)	75 to 100	–	–
COc1ccnc(C(=O)N[C@@H]2CC3CC2c2ccccc23)c1O (stereo partly drawn) [Compound 290]	75 to 100	+ (key: +: at least 80% growth inhibition; −: less than 80% growth inhibition)	− (key: +: at least 80% growth inhibition; −: less than 80% growth inhibition)	–	75 to 100	–
COc1cccc(Oc2ccc(NC(=O)c3nccc(OC)c3O)cc2)c1 [Compound 435]	–	–	–	–	–	SEPTTR in vivo 1 Day Protectant (Septoria tritici—SEPTTR; [5]): − (<25% control of fungal infection); PUCCRT in vivo 1 Day Protectant [1, 5]: − (<25% control of fungal infection); pest or weed control at 100 ppm (Erysiphe graminis—ERYSGT): < 25%; LEPTNO in vivo 1 Day Protectant [3, 8]: + (25-74% control of fungal infection)
COc1ccnc(C(=O)N[C@H]2COC(=O)[C@H](Cc3ccccc3)[C@@H](OCC(C)C)[C@H](C)OC2=O)c1O [Compound 384]	–	–	–	–	75 to 100	pest or weed control at 100 ppm (Erysiphe graminis—ERYSGT): 75 to 100%
COc1ccnc(C(=O)Nc2cccc(Oc3ccc(C(F)(F)F)cc3)n2)c1O [Compound 469]	–	–	–	–	–	pest or weed control at 100 ppm [1, 6]: 75 to 100%
COc1ccnc(C(=O)N[C@H]2COC(=O)[C@H](Cc3ccccc3)[C@@H](OC(=O)Cc3ccccc3)[C@H](C)OC2=O)c1O [Compound 395]	–	–	–	–	–	SEPTTR in vivo 1 Day Protectant (Septoria tritici—SEPTTR; [5]): + (25-74% control of fungal infection); PUCCRT in vivo 1 Day Protectant [1, 5]: + (25-74% control of fungal infection); ERYSGT in vivo 1 Day Protectant (Erysiphe graminis—ERYSGT; wheat (cultivar Monon), sprayed at 100 ppm, control of fungal infection vs untreated plants): − (<25% control of fungal infection); LEPTNO in vivo 1 Day Protectant [3, 8]: + (25-74% control of fungal infection)
COc1ccnc(C(=O)NC2C(=O)c3ccc(-c4ccco4)cc3OC2C)c1O (stereo not drawn) [Compound 323]	–	+ (key: +: at least 80% growth inhibition; −: less than 80% growth inhibition)	− (key: +: at least 80% growth inhibition; −: less than 80% growth inhibition)	75 to 100	75 to 100	–
